Where two headings read alike, the source gives them in different places.
Columns and labels:
[1] = test system: contact sensitivity response to 2,4-dinitrofluorobenzene (DNFB); assay: Contact sensitivity response to 2,4-dinitrofluorobenzene (DNFB) in mice; format: in vivo, Balb/c female mice
Method: This is an antigen-specific T-cell mediated inflammatory response that represents delayed-type hypersensitivity reactions seen in both humans and other mammals.
Balb/c female mice (.perspectiveto.20g, Charles River) were sensitized on the shaved abdomen with 25 μl of 0.5% 2,4-dinitrofluorobenzene ([…], Eastman Kodak Co.) in a vehicle of 4:1 acetone:olive oil on days 0 and 1. Mice were ear challenged with 20 μl of 0.2% DNFB in a vehicle of 4:1 acetone:olive oil on day 5. A constant area of the ears was measured immediately before challenge and 24 hours later with an engineer's micrometer. Ear swelling was expressed as the difference in ear thickness before and after challenge in units of 10^-4 inches±SEM. Percent suppression was calculated as: [formula] […] Negative controls were not sensitized on days 0 and 1 but were ear challenged on day 5. Ten mice were used per group.

[2] = test system: human mixed lymphocyte reaction; assay: Human mixed lymphocyte reaction (3H-thymidine incorporation); format: cell-based; settings: Table 4, human PBMC of two donors, 6 days
Text: Contact sensitivity to DNFB has teen extensively studied and characterized in the mouse to determine the regulatory mechanisms involved in cell mediated immune responses (Claman, et al., Immunol Rev 50:105, 1980). This is an antigen-specific T-cell mediated inflammatory response that represents delayed-type hypersensitivity reactions seen in both humans and other mammals. The primary use of the human mixed lymphocyte reaction is for the determination of transplantation compatibility between the donor (graft) and the recipient (Park and Good, p. 71. In Yunis, et al., Tissue typing and organ transplantation. 1973 Academic Press Inc., N.Y.).
Blood was obtained by venipuncture from two nonrelated human donors. Peripheral blood mononuclear cells (PBMC) were isolated from these samples by using the Leuco Prep procedure (Becton-Dickinson). PBMC were washed twice in phosphate buffered saline (without calcium and magnesium) and the separate cell isolations were adjusted to the appropriate concentrations in media (RPMI 1640) supplemented with 10% human AB serum and […] gentamicin. Cells from donor A (2×10^5) were incubated with cells from donor B (2×10^5) in 96 well round bottom microliter plates at 37° C., 5% CO2 for 6 days. Eighteen hours prior to harvesting cells from the plates, all wells were pulsed with 1 μCi of ^3 H-thymidine. Cells from the plates were harvested on day 6 and ^3 H-thymidine incorporation was determined using a scintillation counter.

[3] = Mus musculus, po, 24 h, Table 3, ear swelling, 20.0 mg/kg oral, read-out: % Suppression

Structure (SMILES): Cc1c(-c2ccc(Sc3ccccc3)cc2)nc2ccc(Cl)cc2c1C(=O)O [Example 7]
- inhibition in vivo at 20 mg/kg [1, 3]: 14.4%
- Ear Swelling (units ± SEM), increase in ear thickness from day 5 to day 6 ([1]; Table 3, 20.0 mg/kg oral): 62.95 ± 3.40 10^-4 inches

Structure (SMILES): Cc1c(-c2ccc(Sc3ccccc3)cc2)nc2ccc(Cl)cc2c1C(=O)O [Example 8]
- Ear Swelling (units ± SEM), increase in ear thickness from day 5 to day 6 ([1]; Table 3, 20.0 mg/kg oral): 63.25 ± 3.58 10^-4 inches
- % Suppression ([1]; Table 3, ear swelling, 20.0 mg/kg oral, 20 mg/kg): 13.98%

Structure (SMILES): O=C(O)c1cc(-c2ccc(-c3ccccc3)cc2)nc2ccc(F)cc12 [Example 9]
- inhibition in vivo at 20 mg/kg [1, 3]: 43.3%
- Ear Swelling (units ± SEM), increase in ear thickness from day 5 to day 6 ([1]; Table 3, 20.0 mg/kg oral): 42.60 ± 2.68 10^-4 inches

Structure (SMILES): Cc1c(-c2ccc([S+]([O-])c3ccccc3)cc2)nc2ccc(F)cc2c1C(=O)O (stereo not shown) [Example 10]
- inhibition in vivo at 20 mg/kg [1, 3]: 22.4%
- Ear Swelling (units ± SEM), increase in ear thickness from day 5 to day 6 ([1]; Table 3, 20.0 mg/kg oral): 57.28 ± 2.36 10^-4 inches

Structure (SMILES): COc1c(-c2ccc(-c3ccccc3)cc2)nc2ccc(F)cc2c1C(=O)O [Example 11]
- inhibition in vivo at 20 mg/kg [1, 3]: 74.1%
- Ear Swelling (units ± SEM), increase in ear thickness from day 5 to day 6 ([1]; Table 3, 20.0 mg/kg oral): 20.85 ± 2.53 10^-4 inches

Structure (SMILES): Cc1c(-c2ccc(-c3ccc(O)cc3)cc2)nc2ccc(Cl)cc2c1C(=O)O [Example 12]
- inhibition in vivo at 20 mg/kg [1, 3]: 26.3%
- Ear Swelling (units ± SEM), increase in ear thickness from day 5 to day 6 ([1]; Table 3, 20.0 mg/kg oral): 54.58 ± 3.21 10^-4 inches

Structure (SMILES): COc1ccc2c(c1)c(CC(=O)O)c(C)n2C(=O)c1ccc(Cl)cc1 [Indomethacin, reference compound]
- IC50 [2]: > 1000 nM

Structure (SMILES): CN(Cc1cnc2nc(N)nc(N)c2n1)c1ccc(C(=O)N[C@@H](CCC(=O)O)C(=O)O)cc1 [Methotrexate, reference compound]
- IC50 [2]: 2.5 nM
- inhibition in vivo at 0.4 mg/kg ([1]; Mus musculus, po, 24 h, Table 2, ear swelling, 0.4 mg/kg oral, read-out: % Suppression): 3.83%
- inhibition in vivo at 2 mg/kg ([1]; Mus musculus, po, 24 h, Table 2, ear swelling, 2.0 mg/kg oral, read-out: % Suppression): 18.1%
- inhibition in vivo at 10 mg/kg ([1]; Mus musculus, po, 24 h, Table 2, ear swelling, 10.0 mg/kg oral, read-out: % Suppression): 51.8%
- inhibition in vivo at 20 mg/kg ([1]; Mus musculus, po, 24 h, Table 2, ear swelling, 20.0 mg/kg oral, read-out: % Suppression): 63.6%
- inhibition in vivo at 20 mg/kg [1, 3]: 79.7%
- ED50 ([1]; Mus musculus, Table 2, suppression of ear swelling, oral, days -2 through 6, read-out: ED50): 9 mg/kg
- Ear Swelling (units ± SEM), increase in ear thickness from day 5 to day 6 ([1]; Table 2, 0.4 mg/kg oral): 71.30 ± 2.96 10^-4 inches
- Ear Swelling (units ± SEM), increase in ear thickness from day 5 to day 6 ([1]; Table 2, 2.0 mg/kg oral): 60.80 ± 1.99 10^-4 inches
- Ear Swelling (units ± SEM), increase in ear thickness from day 5 to day 6 ([1]; Table 2, 10.0 mg/kg oral): 36.10 ± 3.23 10^-4 inches
- Ear Swelling (units ± SEM), increase in ear thickness from day 5 to day 6 ([1]; Table 2, 20.0 mg/kg oral): 27.45 ± 4.99 10^-4 inches
- Ear Swelling (units ± SEM), increase in ear thickness from day 5 to day 6 ([1]; Table 3, 20.0 mg/kg oral): 16.94 ± 2.10 10^-4 inches
